Reference: patent US20250339569A1, “CARBONIC ANHYDRASE IX LIGANDS” (priority 2021, published 2025)
Starred links: 1 amine or outer side, 2 acyl side, 3 side chain; linkers in the order of their positions; H or OH if unused. Positions of bridges follow the written chain, without caps; N, C: chain ends. Non-standard residues stand in square brackets, D forms with d. Residues, ends and D or L forms follow the SMILES beside them. *: point of attachment. X23 = NS(=O)(=O)c1cccc(C(=O)Nc2cccc(C[C@H](N[*:1])C(=O)[*:2])c2)c1; X24 = NS(=O)(=O)c1ccc(C(=O)Nc2cccc(C[C@H](N[*:1])C(=O)[*:2])c2)cc1; X10 = NS(=O)(=O)c1cc(C(=O)Nc2cccc(C[C@H](N[*:1])C(=O)[*:2])c2)cs1; X11 = NS(=O)(=O)c1ccc(C(=O)Nc2cccc(C[C@H](N[*:1])C(=O)[*:2])c2)s1; X21 = NS(=O)(=O)CCC(=O)Nc1cccc(C[C@H](N[*:1])C(=O)[*:2])c1; DOTA = O=C(O)CN1CCN(CC(=O)O)CCN(CC(=O)*)CCN(CC(=O)O)CC1; X7 = O=C([C@H](Cc1cccc(N[*:3])c1)N[*:1])[*:2]; Propanoyl(3-SO2NH2) = NS(=O)(=O)CCC(=O)*; Phe(4-NH2) = Nc1ccc(C[C@H](N)C(=O)O)cc1; mXylylene = c1cc(C[*:1])cc(C[*:2])c1; X36 = NS(=O)(=O)Cc1ccc(C(=O)*)cc1; X2 = O=C(CN1CCC(N[*:1])CC1)[*:2]; X26 = NS(=O)(=O)c1cccc(C(=O)*)c1; X17 = NS(=O)(=O)c1cc(C(=O)*)cs1; X27 = NS(=O)(=O)c1ccc(C(=O)*)s1

Legend:
[1] = target: T1, CAIX-expressing human HT-29 colorectal cancer cells (Homo sapiens, UniProt Q16790); test: FACS binding assay (IC50 determination, competition with tracer 3BP-2776 or 3BP-4149); conditions: FACS binding assay, HT-29 cells, competition with tracer 3BP-4149 (3 nM, Cy5-labeled), 4° C., 1 hour; read-out: pIC50 category (activity) (converted)
T1 construct: CAIX-expressing human HT-29 colorectal cancer cells; host or cells: HT-29 human colorectal cancer cells
Method in brief: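 HT-29 cells in FACS buffer (PBS, 1% FCS) at 500.000 cells/ml were exposed to compounds competing with a labelled tracer, with biotinylated compounds detected by 1 μg/mL APC-streptavidin for 30 min on ice. APC/Cy5 median fluorescence was read by flow cytometry and IC50 derived by 4PL fit.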

[2] = target: T2, human carbonic anhydrase IX (hCAIX-Fc) (Homo sapiens, UniProt Q16790); test: Surface plasmon resonance assay with hCAIX-Fc; type: binding; conditions: 25° C.; for t1/2 category (activity): SPR dissociation half-life, hCAIX-Fc; for Kd: SPR, hCAIX-Fc captured, read-out: pKD category (activity) (converted)
T2 construct: purchased SinoBliological (Sino Biological) 10107-H02H

SMILES | IC50 [1] [nM] | t1/2 category (activity) [2] | Kd [2] [nM]
CC(C)C[C@@H]1NC(=O)[C@H](Cc2ccc(NC(=O)CCS(N)(=O)=O)cc2)NC(=O)[C@H](CC(=O)O)NC(=O)[C@H]2CCCN2C(=O)[C@H](CCC(=O)O)NC(=O)[C@@H](NC(=O)[C@H](Cc2ccc(O)cc2)NC(=O)[C@@H](NC(=O)CN2CCC(NC(=O)CN3CCN(CC(=O)O)CCN(CC(=O)O)CCN(CC(=O)O)CC3)CC2)C(C)C)CSCc2cccc(c2)CSC[C@@H](C(N)=O)NC(=O)[C@H](CO)NC(=O)[C@H](Cc2c[nH]c3ccccc23)NC(=O)[C@H]([C@@H](C)O)NC1=O [3BP-4400] ({DOTA}-[X2]VYCE[dP]D[Phe(4-NH2)](Propanoyl(3-SO2NH2))LTWSC-NH2; linker 4-13 via mXylylene) | < 10 | A (t1/2>15.0 minutes) | < 10
CC(C)C[C@@H]1NC(=O)[C@H](Cc2ccc(NC(=O)c3csc(S(N)(=O)=O)c3)cc2)NC(=O)[C@H](CC(=O)O)NC(=O)[C@H]2CCCN2C(=O)[C@H](CCC(=O)O)NC(=O)[C@@H](NC(=O)[C@H](Cc2ccc(O)cc2)NC(=O)[C@@H](NC(=O)CN2CCC(NC(=O)CN3CCN(CC(=O)O)CCN(CC(=O)O)CCN(CC(=O)O)CC3)CC2)C(C)C)CSCc2cccc(c2)CSC[C@@H](C(N)=O)NC(=O)[C@H](CO)NC(=O)[C@H](Cc2c[nH]c3ccccc23)NC(=O)[C@H]([C@@H](C)O)NC1=O [3BP-4401] ({DOTA}-[X2]VYCE[dP]D[Phe(4-NH2)](X17)LTWSC-NH2; linker 4-13 via mXylylene) | < 10 | A (t1/2>15.0 minutes) | < 10
CC(C)C[C@@H]1NC(=O)[C@H](Cc2ccc(NC(=O)c3ccc(S(N)(=O)=O)s3)cc2)NC(=O)[C@H](CC(=O)O)NC(=O)[C@H]2CCCN2C(=O)[C@H](CCC(=O)O)NC(=O)[C@@H](NC(=O)[C@H](Cc2ccc(O)cc2)NC(=O)[C@@H](NC(=O)CN2CCC(NC(=O)CN3CCN(CC(=O)O)CCN(CC(=O)O)CCN(CC(=O)O)CC3)CC2)C(C)C)CSCc2cccc(c2)CSC[C@@H](C(N)=O)NC(=O)[C@H](CO)NC(=O)[C@H](Cc2c[nH]c3ccccc23)NC(=O)[C@H]([C@@H](C)O)NC1=O [3BP-4402] ({DOTA}-[X2]VYCE[dP]D[Phe(4-NH2)](X27)LTWSC-NH2; linker 4-13 via mXylylene) | < 10 | A (t1/2>15.0 minutes) | < 10
CC(C)C[C@@H]1NC(=O)[C@H](Cc2cccc(NC(=O)c3ccc(S(N)(=O)=O)cc3)c2)NC(=O)[C@H](CC(=O)O)NC(=O)[C@H]2CCCN2C(=O)[C@H](CCC(=O)O)NC(=O)[C@@H](NC(=O)[C@H](Cc2ccc(O)cc2)NC(=O)[C@@H](NC(=O)CN2CCC(NC(=O)CN3CCN(CC(=O)O)CCN(CC(=O)O)CCN(CC(=O)O)CC3)CC2)C(C)C)CSCc2cccc(c2)CSC[C@@H](C(N)=O)NC(=O)[C@H](CO)NC(=O)[C@H](Cc2c[nH]c3ccccc23)NC(=O)[C@H]([C@@H](C)O)NC1=O [3BP-4405] ({DOTA}-[X2]VYCE[dP]D[X24]LTWSC-NH2; linker 4-13 via mXylylene) | < 10 | A (t1/2>15.0 minutes) | < 10
CC(C)C[C@@H]1NC(=O)[C@H](Cc2cccc(NC(=O)c3ccc(CS(N)(=O)=O)cc3)c2)NC(=O)[C@H](CC(=O)O)NC(=O)[C@H]2CCCN2C(=O)[C@H](CCC(=O)O)NC(=O)[C@@H](NC(=O)[C@H](Cc2ccc(O)cc2)NC(=O)[C@@H](NC(=O)CN2CCC(NC(=O)CN3CCN(CC(=O)O)CCN(CC(=O)O)CCN(CC(=O)O)CC3)CC2)C(C)C)CSCc2cccc(c2)CSC[C@@H](C(N)=O)NC(=O)[C@H](CO)NC(=O)[C@H](Cc2c[nH]c3ccccc23)NC(=O)[C@H]([C@@H](C)O)NC1=O [3BP-4406] ({DOTA}-[X2]VYCE[dP]D[X7](X36)LTWSC-NH2; linker 4-13 via mXylylene) | < 10 | A (t1/2>15.0 minutes) | < 10
CC(C)C[C@@H]1NC(=O)[C@H](Cc2cccc(NC(=O)CCS(N)(=O)=O)c2)NC(=O)[C@H](CC(=O)O)NC(=O)[C@H]2CCCN2C(=O)[C@H](CCC(=O)O)NC(=O)[C@@H](NC(=O)[C@H](Cc2ccc(O)cc2)NC(=O)[C@@H](NC(=O)CN2CCC(NC(=O)CN3CCN(CC(=O)O)CCN(CC(=O)O)CCN(CC(=O)O)CC3)CC2)C(C)C)CSCc2cccc(c2)CSC[C@@H](C(N)=O)NC(=O)[C@H](CO)NC(=O)[C@H](Cc2c[nH]c3ccccc23)NC(=O)[C@H]([C@@H](C)O)NC1=O [3BP-4407] ({DOTA}-[X2]VYCE[dP]D[X21]LTWSC-NH2; linker 4-13 via mXylylene) | < 10 | A (t1/2>15.0 minutes) | < 10
CC(C)C[C@@H]1NC(=O)[C@H](Cc2ccc(NC(=O)c3cccc(S(N)(=O)=O)c3)cc2)NC(=O)[C@H](CC(=O)O)NC(=O)[C@H]2CCCN2C(=O)[C@H](CCC(=O)O)NC(=O)[C@@H](NC(=O)[C@H](Cc2ccc(O)cc2)NC(=O)[C@@H](NC(=O)CN2CCC(NC(=O)CN3CCN(CC(=O)O)CCN(CC(=O)O)CCN(CC(=O)O)CC3)CC2)C(C)C)CSCc2cccc(c2)CSC[C@@H](C(N)=O)NC(=O)[C@H](CO)NC(=O)[C@H](Cc2c[nH]c3ccccc23)NC(=O)[C@H]([C@@H](C)O)NC1=O [3BP-4408] ({DOTA}-[X2]VYCE[dP]D[Phe(4-NH2)](X26)LTWSC-NH2; linker 4-13 via mXylylene) | < 10 | A (t1/2>15.0 minutes) | < 10
CC(C)C[C@@H]1NC(=O)[C@H](Cc2cccc(NC(=O)c3cccc(S(N)(=O)=O)c3)c2)NC(=O)[C@H](CC(=O)O)NC(=O)[C@H]2CCCN2C(=O)[C@H](CCC(=O)O)NC(=O)[C@@H](NC(=O)[C@H](Cc2ccc(O)cc2)NC(=O)[C@@H](NC(=O)CN2CCC(NC(=O)CN3CCN(CC(=O)O)CCN(CC(=O)O)CCN(CC(=O)O)CC3)CC2)C(C)C)CSCc2cccc(c2)CSC[C@@H](C(N)=O)NC(=O)[C@H](CO)NC(=O)[C@H](Cc2c[nH]c3ccccc23)NC(=O)[C@H]([C@@H](C)O)NC1=O [3BP-4409] ({DOTA}-[X2]VYCE[dP]D[X23]LTWSC-NH2; linker 4-13 via mXylylene) | < 10 | A (t1/2>15.0 minutes) | < 10
CC(C)C[C@@H]1NC(=O)[C@H](Cc2cccc(NC(=O)c3csc(S(N)(=O)=O)c3)c2)NC(=O)[C@H](CC(=O)O)NC(=O)[C@H]2CCCN2C(=O)[C@H](CCC(=O)O)NC(=O)[C@@H](NC(=O)[C@H](Cc2ccc(O)cc2)NC(=O)[C@@H](NC(=O)CN2CCC(NC(=O)CN3CCN(CC(=O)O)CCN(CC(=O)O)CCN(CC(=O)O)CC3)CC2)C(C)C)CSCc2cccc(c2)CSC[C@@H](C(N)=O)NC(=O)[C@H](CO)NC(=O)[C@H](Cc2c[nH]c3ccccc23)NC(=O)[C@H]([C@@H](C)O)NC1=O [3BP-4412] ({DOTA}-[X2]VYCE[dP]D[X10]LTWSC-NH2; linker 4-13 via mXylylene) | < 10 | A (t1/2>15.0 minutes) | < 10
CC(C)C[C@@H]1NC(=O)[C@H](Cc2cccc(NC(=O)c3ccc(S(N)(=O)=O)s3)c2)NC(=O)[C@H](CC(=O)O)NC(=O)[C@H]2CCCN2C(=O)[C@H](CCC(=O)O)NC(=O)[C@@H](NC(=O)[C@H](Cc2ccc(O)cc2)NC(=O)[C@@H](NC(=O)CN2CCC(NC(=O)CN3CCN(CC(=O)O)CCN(CC(=O)O)CCN(CC(=O)O)CC3)CC2)C(C)C)CSCc2cccc(c2)CSC[C@@H](C(N)=O)NC(=O)[C@H](CO)NC(=O)[C@H](Cc2c[nH]c3ccccc23)NC(=O)[C@H]([C@@H](C)O)NC1=O [3BP-4413] ({DOTA}-[X2]VYCE[dP]D[X11]LTWSC-NH2; linker 4-13 via mXylylene) | < 10 | A (t1/2>15.0 minutes) | < 10
